# Laboratory results from patent US20230332232A1, “COMPOSITIONS AND METHODS FOR DIAGNOSING AND TREATING A DYSTONIA” (Duke University, priority 2020, published 2023).
# System: DYT1 knockin (Tor1a^delGAG/+) murine embryonic fibroblasts (MEFs)
# Assay: microRNA-seq of EVs from DYT1 MEFs treated with drug, compared with non-treated DYT1 MEFs
# Assay type: cell-based, mouse
# Conditions: for Sal Direction Opposite ISRIB?: EVs of DYT1 (Het) MEFs
# Protocol: In addition to proteomic analysis, total RNA-seq and microRNA-seq was performed on RNA isolated in parallel from the EV samples of Cohort 2. As with the proteomic analysis, one biological replicate was prepared from 3 distinct biological clonal cell lines for each genotype. Here, EVs were isolated from conditioned cell culture media by 18 hour ultracentrifugation at 100,000 g. RNA was extracted using the Qiagen miRNeasy Micro Kit (Cat. No. 217084) according to the manufacturer's protocol. Two RNA fractions were extracted from each sample, one enriched in coding and non-coding RNA species>200 nt (“Total RNA” fraction) and one enriched for small RNAs<200 nt (“miRNA” fraction). RNA samples were then submitted to the Duke Sequencing and Genomic Technologies shared resource for further quality control and sequencing. Samples were assessed for concentration and integrity by Qubit and Fragment Analyzer. The miRNA fractions were 4.16 ng/μL-47.57 ng/μL and total RNA fractions were 3.8 ng/μL-43.6 ng/μL. The small RNA library was prepared using the QIAseq miRNA Library Kit (Cat No./ID: 331505) and sequenced on the Illumina NextSeq 500 High-Output platform with 75 bp single-reads. The total RNA library was prepared using the Illumina TruSeq Stranded Total RNA-seq Kit with Ribozero Gold ribosomal RNA reduction and sequenced on the Illumina NovaSeq 6000 S1 platform with 100 bp paired-end reads. Sequencer lane pooling and read depth are attached in the Excel data summary (See “RNA QC” Tab). Data processing and analysis were performed in collaboration with the Duke Genomic Analysis and Bioinformatics shared resource. RNA-seq data was processed using the TrimGalore toolkit (http://www.bioinformatics.babraham.ac.uk/projects/trim_galore), which employs Cutadapt(Martin M. (2011) EMBnet.journal. 17(1):10-12) to trim low quality bases and Illumina sequencing adapters from the 3' end of the reads. Only reads that were 20 nt or longer after trimming were kept for further analysis. Reads were mapped to the mouse genome and transcriptome ([…], et al. (2012) Nucleic Acids Res. 40(Database issue):[…]-97) using the STAR RNA-seq alignment tool (Dobin A, et al. (2013). Bioinformatics. 29(1):15-21). If the reads mapped to a single genomic location, then they were kept for subsequent analysis. Gene counts were compiled using the HTSeq tool (http://www-huber.embl.de/users/anders/HTSeq/). Only genes that had at least 10 reads in any given library were used in subsequent analysis. Normalization and differential expression was carried out using the DESeq26 Bioconductor (Huber W, et al. (2015) Nat Methods. 12(2):115-121) package with the R statistical programming environment (www.r-project.org). […] 694 miRNAs were initially examined with respect to QC, genotype, RTV effects, and ISRIB effects. This subset was the “Full miRNA” subset. FIG. 9A and FIG. 9B show the RTV effect on EV composition in DYT1 cells compared to WT cells for 279 miRNAs, respectively. […] Beginning with the 694 miRNAs in the “Full miRNA” subset, more than 60 molecules were detected in either WT cells or DYT1 cells (WT or Het UMI>60). […] The candidate miRNAs were ranked by the sum of genotype-dependent absolute Z-scores and RTV-induced absolute Z-scores (Abs Z Score Sum (Geno+RTV)). This subset was the “miRNA-Ritonavir Therapeutic Efficacy” subset and contained 201 miRNAs.
# [1] = SAL-treated vs non-treated DYT1 (Het) MEF EVs
smiles,measurement,setting,value
"O=C(/C=C/c1ccccc1)NC(NC(=S)Nc1cccc2cccnc12)C(Cl)(Cl)Cl (centres unmarked) [SAL, Salubrinal]",mmu-miR-147-5p: SALvHet Z Score,[1],−0.16
same,mmu-miR-181a-1-3p: SALvHet Z Score,[1],−0.12
same,mmu-miR-181a-1-3p: Sal Direction Opposite ISRIB?,[1],yes
same,mmu-miR-331-5p: SALvHet Z Score,[1],0.66
same,mmu-miR-668-3p: SALvHet Z Score,[1],0.34
same,mmu-miR-1930-5p: SALvHet Z Score,[1],−1.60
same,mmu-miR-1943-5p: SALvHet Z Score,[1],−0.08
same,mmu-miR-1955-5p: SALvHet Z Score,[1],1.06
same,mmu-miR-3072-5p: SALvHet Z Score,[1],0.00
same,mmu-miR-3076-3p: SALvHet Z Score,[1],0.00
same,mmu-miR-3088-3p: SALvHet Z Score,[1],−1.34
same,mmu-miR-6936-3p: SALvHet Z Score,[1],−0.71
same,mmu-miR-6936-3p: Sal Direction Opposite ISRIB?,[1],yes
same,mmu-miR-7224-3p: SALvHet Z Score,[1],0.30
same,mmu-miR-7224-3p: Sal Direction Opposite ISRIB?,[1],yes
same,mmu-miR-467d-3p: SALvHet Z Score,[1],−0.01
same,SALvHet Z Score,mmu-let-7a-1-3p,0.28
same,SALvHet Z Score,mmu-let-7c-2-3p,0.28
same,SALvHet Z Score,mmu-let-7g-5p,−0.16
same,SALvHet Z Score,mmu-let-7i-3p,0.35
same,Sal Direction Opposite ISRIB?,mmu-miR-30e-5p,yes
same,SALvHet Z Score,mmu-miR-30e-3p,−0.06
same,SALvHet Z Score,mmu-miR-15a-5p,0.17
same,SALvHet Z Score,mmu-miR-16-5p,−0.01
same,SALvHet Z Score,mmu-miR-17-3p,0.10
same,Sal Direction Opposite ISRIB?,mmu-miR-19b-3p,yes
same,SALvHet Z Score,mmu-miR-22-3p,0.17
same,Sal Direction Opposite ISRIB?,mmu-miR-22-3p,yes
same,SALvHet Z Score,mmu-miR-23a-3p,0.05
same,SALvHet Z Score,mmu-miR-25-3p,−0.04
same,Sal Direction Opposite ISRIB?,mmu-miR-26b-Sp,yes
same,SALvHet Z Score,mmu-miR-29b-3p,0.38
same,SALvHet Z Score,mmu-miR-29c-3p,0.40
same,SALvHet Z Score,mmu-miR-30a-5p,−0.09
same,SALvHet Z Score,mmu-miR-30b-5p,0.15
same,SALvHet Z Score,mmu-miR-30c-5p (1st line so named),0.42
same,SALvHet Z Score,mmu-miR-30c-5p (2nd line so named),0.07
same,Sal Direction Opposite ISRIB?,mmu-miR-30c-5p,yes
same,SALvHet Z Score,mmu-miR-31-3p,−0.03
same,SALvHet Z Score,mmu-miR-31-5p,−0.14
same,SALvHet Z Score,mmu-miR-32-5p,0.26
same,SALvHet Z Score,mmu-miR-33-5p,0.26
same,SALvHet Z Score,mmu-miR-34a-5p,−0.03
same,SALvHet Z Score,mmu-miR-34b-5p,0.38
same,SALvHet Z Score,mmu-miR-34c-3p,−0.37
same,SALvHet Z Score,mmu-miR-34c-5p,0.07
same,Sal Direction Opposite ISRIB?,mmu-miR-34c-5p,yes
same,SALvHet Z Score,mmu-miR-96-5p,0.13
same,Sal Direction Opposite ISRIB?,mmu-miR-96-5p,yes
same,SALvHet Z Score,mmu-miR-98-5p,−0.22
same,SALvHet Z Score,mmu-miR-99a-5p,−0.17
same,SALvHet Z Score,mmu-miR-101b-3p,0.64
same,SALvHet Z Score,mmu-miR-106b-3p,−0.23
same,SALvHet Z Score,mmu-miR-106b-5p,0.04
same,SALvHet Z Score,mmu-miR-124-3p,−0.72
same,SALvHet Z Score,mmu-miR-125b-1-3p,−0.41
same,SALvHet Z Score,mmu-miR-130b-3p,0.32
same,Sal Direction Opposite ISRIB?,mmu-miR-130b-3p,yes
same,Sal Direction Opposite ISRIB?,mmu-miR-135a-5p,yes
same,SALvHet Z Score,mmu-miR-136-3p,0.08
same,SALvHet Z Score,mmu-miR-140-3p,0.50
same,Sal Direction Opposite ISRIB?,mmu-miR-140-3p,yes
same,SALvHet Z Score,mmu-miR-146a-5p,0.02
same,SALvHet Z Score,mmu-miR-148a-3p,−0.02
same,SALvHet Z Score,mmu-miR-148b-3p,−0.07
same,SALvHet Z Score,mmu-miR-149-5p,0.03
same,SALvHet Z Score,mmu-miR-151-5p,0.12
same,SALvHet Z Score,mmu-miR-152-3p,−0.02
same,SALvHet Z Score,mmu-miR-181a-5p,−0.23
same,SALvHet Z Score,mmu-miR-181b-5p,−0.32
same,SALvHet Z Score,mmu-miR-181c-5p,0.26
same,SALvHet Z Score,mmu-miR-182-5p,0.01
same,Sal Direction Opposite ISRIB?,mmu-miR-182-5p,yes
same,SALvHet Z Score,mmu-miR-183-5p,−0.06
same,SALvHet Z Score,mmu-miR-185-5p,0.15
same,SALvHet Z Score,mmu-miR-186-5p,0.00
same,SALvHet Z Score,mmu-miR-187-3p,0.30
same,Sal Direction Opposite ISRIB?,mmu-miR-187-3p,yes
same,SALvHet Z Score,mmu-miR-188-5p,−0.05
same,SALvHet Z Score,mmu-miR-190b-5p,0.15
same,SALvHet Z Score,mmu-miR-191-5p,0.04
same,SALvHet Z Score,mmu-miR-192-5p,0.09
same,Sal Direction Opposite ISRIB?,mmu-miR-192-5p,yes
same,SALvHet Z Score,mmu-miR-194-5p,0.18
same,SALvHet Z Score,mmu-miR-199a-3p,−0.10
same,SALvHet Z Score,mmu-miR-199b-3p,−0.10
same,SALvHet Z Score,mmu-miR-206-3p,−0.27
same,SALvHet Z Score,mmu-miR-214-5p,0.04
same,SALvHet Z Score,mmu-miR-219a-5p,0.34
same,SALvHet Z Score,mmu-miR-223-3p,−0.01
same,SALvHet Z Score,mmu-miR-224-5p,−0.27
same,SALvHet Z Score,mmu-miR-296-3p,0.05
same,Sal Direction Opposite ISRIB?,mmu-miR-296-3p,yes
same,SALvHet Z Score,mmu-miR-298-5p,0.16
same,Sal Direction Opposite ISRIB?,mmu-miR-298-5p,yes
same,SALvHet Z Score,mmu-miR-299a-3p,0.39
same,SALvHet Z Score,mmu-miR-301a-3p,0.35
same,SALvHet Z Score,mmu-miR-301b-3p,0.01
same,SALvHet Z Score,mmu-miR-320-3p,−0.21
same,SALvHet Z Score,mmu-miR-322-5p,−0.07
same,SALvHet Z Score,mmu-miR-324-3p,0.16
same,SALvHet Z Score,mmu-miR-335-Sp,−0.35
same,SALvHet Z Score,mmu-miR-340-5p,0.31
same,SALvHet Z Score,mmu-miR-344-3p,0.44
same,Sal Direction Opposite ISRIB?,mmu-miR-344-3p,yes
same,SALvHet Z Score,mmu-miR-350-3p,0.08
same,SALvHet Z Score,mmu-miR-361-5p,−0.15
same,SALvHet Z Score,mmu-miR-362-3p,0.47
same,Sal Direction Opposite ISRIB?,mmu-miR-362-3p,yes
same,SALvHet Z Score,mmu-miR-362-5p,−0.10
same,SALvHet Z Score,mmu-miR-378a-3p,−0.12
same,SALvHet Z Score,mmu-miR-450a-5p,0.09
same,SALvHet Z Score,mmu-miR-450b-3p,−0.29
same,SALvHet Z Score,mmu-miR-451a,0.38
same,SALvHet Z Score,mmu-miR-483-5p,−1.22
same,SALvHet Z Score,mmu-miR-500-3p,0.10
same,SALvHet Z Score,mmu-miR-503-3p,−0.70
same,SALvHet Z Score,mmu-miR-532-5p,−0.06
same,SALvHet Z Score,mmu-miR-542-3p,0.33
same,SALvHet Z Score,mmu-miR-542-5p,0.39
same,Sal Direction Opposite ISRIB?,mmu-miR-542-5p,yes
same,SALvHet Z Score,mmu-miR-582-3p,−0.45
same,SALvHet Z Score,mmu-miR-652-3p,0.34
same,SALvHet Z Score,mmu-miR-671-5p,0.26
same,Sal Direction Opposite ISRIB?,mmu-miR-671-5p,yes
same,SALvHet Z Score,mmu-miR-700-3p,0.16
same,SALvHet Z Score,mmu-miR-708-5p,0.58
same,SALvHet Z Score,mmu-miR-872-5p,0.19
same,SALvHet Z Score,mmu-miR-1291,−0.06
same,SALvHet Z Score,mmu-miR-1843a-5p,0.07
same,SALvHet Z Score,mmu-miR-3102-3p,0.35
same,SALvHet Z Score,mmu-miR-3535,−0.66
same,SALvHet Z Score,mmu-miR-5121,0.22
same,Sal Direction Opposite ISRIB?,mmu-miR-5121,yes
same,Sal Direction Opposite ISRIB?,mmu-miR-30h-5p,yes
same,SALvHet Z Score,mmu-miR-30d-5p,−0.11
same,SALvHet Z Score,mmu-miR-344d-3p,−1.00
